Test results as given in PMC10906241, “Molecular Insights into O-Linked Sialoglycans Recognition by the Siglec-Like SLBR-N (SLBRUB10712) of Streptococcus gordonii” (ACS Central Science, 2024).

Target: SLBR-N (SLBRUB10712) (Streptococcus mitis, UniProt A0A6I8WFK9)
Test: ITC
Settings: single-site binding model

Chain of SLBR-N (SLBRUB10712) (A0A6I8WFK9 entry or part of it): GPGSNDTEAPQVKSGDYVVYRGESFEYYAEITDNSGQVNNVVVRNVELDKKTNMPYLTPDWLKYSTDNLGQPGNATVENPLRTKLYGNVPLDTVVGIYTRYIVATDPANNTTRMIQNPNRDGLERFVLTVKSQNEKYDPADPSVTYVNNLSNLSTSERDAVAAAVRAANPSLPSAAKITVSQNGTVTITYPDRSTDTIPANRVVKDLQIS

CC(=O)N[C@H]1[C@H](OC[C@H]2O[C@H](O[C@H](C)[C@H](N)C(=O)O)[C@H](NC(C)=O)[C@@H](O[C@@H]3O[C@H](CO)[C@H](O)[C@H](O[C@]4(C(=O)O)C[C@H](O)[C@@H](NC(C)=O)[C@H]([C@H](O)[C@H](O)CO)O4)[C@H]3O)[C@H]2O)O[C@H](CO)[C@@H](O[C@@H]2O[C@H](CO)[C@H](O)[C@H](O[C@]3(C(=O)O)C[C@H](O)[C@@H](NC(C)=O)[C@H]([C@H](O)[C@H](O)CO)O3)[C@H]2O)[C@@H]1O [compound 5, ligand 5]
Kd: 15.1 ± 1.13 µM
